“And” between values parts separate entries of the source, which are not always exact repeats. Equal values may be shown once.
What was measured:
[1] = test system: Panc-1 human pancreas tumors (oncogenic K-ras); experiment: Panc-1 mouse xenograft model, tumor growth (Example 1); format: in vivo, female nude mice; details: Panc-1 xenograft; FK228 IV Q4Dx3 and/or gemcitabine IP Q3Dx4; vs vehicle control
Description: In this study, female nude mice were implanted subcutaneously (SC) by trocar with Panc-1 tumor fragments harvested from SC growing tumors in nude mice hosts. […] The day of treatment initiation was specified as Day 1. Vehicle control and FK228 were administered intravenously on a […] schedule (Days 1, 5, and 9). Gemcitabine was administered by an intraperitoneal injection on a […] schedule (Days 1, 4, 7, 10). Tumors were measured by Vernier calipers twice weekly.

acetylated histone 3 = experiment: Tissue biomarker immunoblotting of PANC-1 xenograft tumors: acetylated histone 3; format: in vivo; details: PANC-1 tumors at study completion; FK228 5 mg/kg Q4Dx3, gemcitabine 80 mg/kg Q3Dx4, or both
Description: (§1) Specimen Collection: […] Tumor xenograft tissue and serum specimens were obtained from in vivo studies performed by the Preclinical Research Laboratory at the completion of the experiments. […] Serum was obtained from whole blood and stored frozen at -70° C. Tissue Biomarkers: Tumor levels of acetylated histone-4, histone-4, […] were quantified by immunoblotting as described. Briefly, frozen tissue was pulverized under liquid nitrogen and homogenized in hypotonic lysis buffer. Small aliquots of the extracts were used for analysis of protein concentration by micro-BCA assay with bovine serum albumin as a protein standard. An equal amount of extracts containing about 20-50 μg protein was electrophoresed in SDS polyacrylamide gels. Proteins were transferred to ImmunoBlot PVDF membrane and were probed with appropriate primary and secondary antibodies. The chemiluminescence signal was captured by autoradiography, quantified by densitometry and expressed as a ratio of actin in each sample lane. For each biomarker, means and standard errors were calculated in each treatment group. […] Following quantitative analysis of biomarker levels in each sample, the results were normalized for b-actin and expressed as percentages of untreated controls. […]

acetylated histone 4 = experiment: Tissue biomarker immunoblotting of PANC-1 xenograft tumors: acetylated histone 4; format: in vivo; details: PANC-1 tumors at study completion; FK228 5 mg/kg Q4Dx3, gemcitabine 80 mg/kg Q3Dx4, or both
Description: as §1

[2] = test system: PANC-1 human pancreatic tumor xenograft; experiment: PANC-1 human pancreatic tumor xenograft tumor growth inhibition study (Example 3); format: in vivo, female nude mice (nu/nu); details: for % TGI / Final tumor volume mean ± SEM: Day 25
Text: (Madison, Wis.). […] Tumor measurements were converted to cubic millimeter tumor volume using the formula^(5): […] TGI values for each treatment group are reported at study completion; these calculations are based on the final study day. […] Individual mice lacking palpable tumors were classified as undergoing complete regression (CR). Animals experiencing partial or complete tumor regressions were censored from TGI calculations. However, data from these animals was included in statistical analysis calculations. In addition, weight data from these animals was included in daily and final group calculations. Tumor Necrosis-Degree of tumor necrosis was rated at each tumor measurement using the following arbitrary index: […]

[3] = Animal weight and drug toxicity, PANC-1 study
Text: Model Information—Female nude mice (nu/nu) between 5 and 6 weeks of age weighing approximately 20 grams were obtained from Harlan, Inc. (Madison, Wis.). PANC-1, obtained from the ATCC, is a pancreas tumor cell line originating from a person^(1-2). BxPC-3, obtained from the American Type Culture Collection (ATCC), is a pancreas tumor cell line originating from a person^(3-4). PANC-1 Study: Animals were implanted subcutaneously (SC) by trocar with fragments of PANC-1 harvested from SC growing tumors in nude mice hosts. When tumors grew to approximately 135 cubic millimeters (mm^3) in size (17 days following implantation, animals were pair-matched by tumor size into treatment and control groups; each treatment group contained nine mice. BxPC-3 Study: Animals were implanted subcutaneously (SC) by trocar with fragments of BxPC-3 harvested from SC growing tumors in nude mice hosts. When tumors grew to approximately 85 cubic millimeters (mm^3) in size (19 days following implantation), animals were pair-matched by tumor size into treatment and control groups; each treatment group contained nine mice. Animals in both studies were ear-tagged and followed individually throughout the experiment.
Study Design and Dosing—Initial doses were administered on Day 1 following pair-matching; both experiments were carried out as tumor growth inhibition (TGI) studies. Animals were dosed intravenously (IV) via tail vein with FK228 once every four days for three treatments (Q4Dx3) or by intraperitoneal (IP) injection with gemcitabine once every three days for four treatments (Q3Dx4), either alone or in combination, at the doses listed below (Table 1). To serve as a negative control, FK228 vehicle (2% ethanol, 8% propylene glycol, 90% 0.9% saline) was injected on a Q4Dx3 schedule.
Animal Weights—Individual and group mean weights±SD and percent weight change through Day 25 (PANC-1) or Day 29 (BxPC-3) were recorded twice weekly until study completion beginning Day 1. Final group mean weights±SD and group nadir values are reported; weight data from individual animals experiencing technical or drug-related deaths was censored from final group calculations.
Moribundity/Mortality—Animals were observed twice weekly for general moribundity and daily for mortality. Animal deaths were assessed as drug-related or technical based on factors including gross observation and weight loss; reported animal death information includes type, number, and day of death for each group.

[4] = test system: transformed (H, K, N-Ras and the rat Her-2/NeuT) NIH-3T3 cells; experiment: 4-day proliferation assay, transformed NIH-3T3 cell lines; format: cell-based, mouse; details: 2 nM romidepsin
Description: (§2) A series of transformed NIH-3T3 cell likes were generated and a proliferation assay was performed in the presence of 2, 3, or 4 nM romidepsin. FIG. 23 illustrates the transformed morphology of the cells. FIG. 24 presents graphs of cell proliferation.

B-Raf 600E cells = experiment: 4-day proliferation assay, B-Raf 600E NIH-3T3 cells; format: cell-based, mouse; details: 2, 3, or 4 nM romidepsin
Description: as §2

[5] = PANC-1 study, FK228 2.5 mg/kg IV Q4Dx3
[6] = PANC-1 study, FK228 2.5 mg/kg IV Q4Dx3, 2.5 mg/kg
[7] = PANC-1 study, FK228 5 mg/kg IV Q4Dx3
[8] = PANC-1 study, FK228 5 mg/kg IV Q4Dx3, 5 mg/kg

For `C/C=C1\NC(=O)[C@H]2CSSCC/C=C/[C@H](CC(=O)N[C@H](C(C)C)C(=O)N2)OC(=O)[C@H](C(C)C)NC1=O` [FK228, romidepsin], the tumor growth inhibition [1] was 26%, the “acetylation of histone 3” value (acetylated histone 3) was “not affected” and the “levels of acetylated histone 4 vs control” value (acetylated histone 4) was “over 2 fold”. For the same compound, the “% TGI” value [2, 5] was 26%, the “Final tumor volume mean ± SEM” value [2, 6] was 1688±290 MM^3 and the “% TGI” value [2, 7] was 26%. For the same compound, the “Final tumor volume mean ± SEM” value [2, 8] was 1690±290 MM^3 and 1690 ± 331 MM^3, the “Activity according to NCI standards” value [2, 5] was “inactive” and the Tumor necrosis [2, 5] was 1/9 animals reported slight tumor necrosis, 1/9 reported mild tumor necrosis, 2/9 reported moderate necrosis, and 1/9 reported severe necrosis. For the same compound, the “#PR/CR” value [2, 6] was 0/9 and 0/0, the “Activity according to NCI standards” value [2, 7] was “inactive” and the Tumor necrosis [2, 7] was 2/9 animals reported slight tumor necrosis, and 1/9 reported moderate necrosis. The “#PR/CR” value [2, 8] was 0/9 and 0/0, the “calculated TGI values” ([2]; PANC-1 study, at the evaluated doses and schedules) was “less than 58%” and the “antitumor activity (overall conclusion)” value ([2]; ras-transformed PANC-1 model, all evaluated doses) was “some activity”. The “Final weight data % change” value ([3]; Day 25, FK228 2.5 mg/kg IV Q4Dx3) was “+8%”, the “Final weight data mean ± SD” value ([3]; Day 25, FK228 2.5 mg/kg IV Q4Dx3, 2.5 mg/kg) was 23±2 G and the “Final weight data % change” value ([3]; Day 25, FK228 5 mg/kg IV Q4Dx3) was “+9%”. For the same compound, the “Final weight data mean ± SD” value ([3]; Day 25, FK228 5 mg/kg IV Q4Dx3, 5 mg/kg) was 25±2 G, the “Weight nadir % change” value ([3]; FK228 2.5 mg/kg IV Q4Dx3) was −9% and the Weight nadir day ([3]; FK228 2.5 mg/kg IV Q4Dx3) was 11. For the same compound, the Drug deaths total ([3]; FK228 2.5 mg/kg IV Q4Dx3, 2.5 mg/kg) was 0/9 and 0, the “Weight nadir % change” value ([3]; FK228 5 mg/kg IV Q4Dx3) was −12% and the Weight nadir day ([3]; FK228 5 mg/kg IV Q4Dx3) was 11. For the same compound, the Drug deaths total ([3]; FK228 5 mg/kg IV Q4Dx3, 5 mg/kg) was 0/9 and 0, the “inhibition of proliferation, transformed vs untransformed cells” value [4] was “selectively inhibited” and the potency on proliferation (B-Raf 600E cells) was “not potent”.
